What was measured:
[1] = target: GST-hRIPK1 (8-327) (Homo sapiens (Human), UniProt Q13546); assay: Fluorescent Polarization Binding (FP Binding) assay
[2] = tested on: FADD-deficient Jurkat cells; assay: Cellular necroptosis assay (human TNFα-induced necrosis, CellTiter-Glo); type: cell-based; conditions: Homo sapiens, Jurkat, 48 h, TNFα 10 ng/mL, read-out: Cell IC50

Sequence of GST-hRIPK1 (8-327) (Q13546 8-327): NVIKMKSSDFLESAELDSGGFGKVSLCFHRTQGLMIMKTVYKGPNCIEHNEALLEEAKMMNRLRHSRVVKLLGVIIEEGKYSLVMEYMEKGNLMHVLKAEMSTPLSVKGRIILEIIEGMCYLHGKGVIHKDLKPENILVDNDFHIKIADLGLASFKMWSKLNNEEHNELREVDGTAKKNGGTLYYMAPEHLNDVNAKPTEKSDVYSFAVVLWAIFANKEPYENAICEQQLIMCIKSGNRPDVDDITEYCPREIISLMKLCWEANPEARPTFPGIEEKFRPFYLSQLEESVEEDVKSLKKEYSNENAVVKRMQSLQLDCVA

| SMILES | IC50 [1] | IC50 [2] |
| --- | --- | --- |
| CN1C(=O)[C@@H](NC(=O)c2nn(Cc3ccccc3)cc2F)CCc2c1cnn2C [Example 114A, (S)-1-benzyl-N-(1,4-dimethyl-5-oxo-1,4,5,6,7,8-hexahydropyrazolo[4,3-b]azepin-6-yl)-4-fluoro-1H-pyrazole-3-carboxamide] | 0.1 to 1000 nM | 0.1 to 1000 nM |
| CN1C(=O)[C@@H](NC(=O)c2nn(Cc3ccc(F)cc3)cc2F)COc2cccnc21 [Example 115, (S)-4-fluoro-1-(4-fluorobenzyl)-N-(5-methyl-4-oxo-2,3,4,5-tetrahydropyrido[3,2-b][1,4]oxazepin-3-yl)-1H-pyrazole-3-carboxamide] | 0.1 to 1000 nM | 0.1 to 1000 nM |
| O=C(N[C@H]1CCc2ccccc2-n2ccnc21)c1cc(Oc2ccccc2F)cnn1 [Example 116, (S)—N-(5,6-dihydro-4H-benzo[f]imidazo[1,2-a]azepin-4-yl)-5-(2-fluorophenoxy)pyridazine-3-carboxamide] | 0.1 to 1000 nM | 0.1 to 1000 nM |
| C[C@H]1Oc2cccnc2N(C)C(=O)[C@H]1NC(=O)c1cc(Oc2ccccc2F)ccn1 [Example 117, N-((2R,3S)-2,5-dimethyl-4-oxo-2,3,4,5-tetrahydropyrido[3,2-b][1,4]oxazepin-3-yl)-4-(2-fluorophenoxy)picolinamide] | 0.1 to 1000 nM | 0.1 to 1000 nM |
| CN1C(=O)[C@@H](NC(=O)c2nnc(Cc3ccccc3)s2)[C@H]2C[C@H]2c2cccnc21 [Example 120A, 5-benzyl-N-((1aS,2S,8bR)-4-methyl-3-oxo-1,1a,2,3,4,8b-hexahydrocyclopropa[d]pyrido[2,3-b]azepin-2-yl)-1,3,4-thiadiazole-2-carboxamide] | 0.1 to 1000 nM | 0.1 to 1000 nM |
| C[C@H]1Oc2cccnc2N(C)C(=O)[C@H]1NC(=O)c1cc(Cc2ccccc2)no1 [Example 122, 3-benzyl-N-((2R,3S)-2,5-dimethyl-4-oxo-2,3,4,5-tetrahydropyrido[3,2-b]oxazepin-3-yl)isoxazole-5-carboxamide] | 0.1 to 1000 nM | 0.1 to 1000 nM |
| O=C(N[C@H]1COc2cccnc2NC1=O)c1ncc(Cc2ccccc2)s1 [Example 123, (S)-5-benzyl-N-(4-oxo-2,3,4,5-tetrahydropyrido[3,2-b][1,4]oxazepin-3-yl)thiazole-2-carboxamide] | 0.1 to 1000 nM | 0.1 to 1000 nM |
| C[C@H]1Oc2cccnc2N(C)C(=O)[C@H]1NC(=O)c1ncc(Cc2ccccc2)s1 [Example 124, 5-benzyl-N-((2R,3S)-2,5-dimethyl-4-oxo-2,3,4,5-tetrahydropyrido[3,2-b][1,4]oxazepin-3-yl)thiazole-2-carboxamide] | 0.1 to 1000 nM | 0.1 to 1000 nM |
| CN1C(=O)[C@@H](NC(=O)c2nnc(Cc3ccccc3)[nH]2)CC2(CC2)c2cccnc21 [Example 125B, (S)-5-benzyl-N-(9′-methyl-8′-oxo-6′,7′,8′,9′-tetrahydrospiro[cyclopropane-1,5′-pyrido[2,3-b]azepin]-7′-yl)-4H-1,2,4-triazole-3-carboxamide] | 0.1 to 1000 nM | 0.1 to 1000 nM |
| CN1C(=O)[C@@H](NC(=O)c2nc(F)c(Cc3ccccc3)s2)COc2cccnc21 [Example 126, (S)-5-benzyl-4-fluoro-N-(5-methyl-4-oxo-2,3,4,5-tetrahydropyrido[3,2-b][1,4]oxazepin-3-yl)thiazole-2-carboxamide] | 0.1 to 1000 nM | 0.1 to 1000 nM |
| C[C@H]1Oc2cccnc2N(C)C(=O)[C@H]1NC(=O)c1nn(Cc2cccc(C#N)c2)cc1F [Example 128, 1-(3-Cyanobenzyl)-N-((2R,3S)-2,5-dimethyl-4-oxo-2,3,4,5-tetrahydropyrido[3,2-b][1,4]oxazepin-3-yl)-4-fluoro-1H-pyrazole-3-carboxamide] | 0.1 to 1000 nM | 0.1 to 1000 nM |
| CN1C(=O)[C@@H](NC(=O)c2nn(Cc3cc(F)cc(C#N)c3)cc2F)COc2cccnc21 [Example 130, (S)-1-(3-Cyano-5-fluorobenzyl)-4-fluoro-N-(5-methyl-4-oxo-2,3,4,5-tetrahydropyrido[3,2-b][1,4]oxazepin-3-yl)-1H-pyrazole-3-carboxamide] | 0.1 to 1000 nM | 0.1 to 1000 nM |
| C[C@H]1Oc2cccnc2N(C)C(=O)[C@H]1NC(=O)c1nn(Cc2ccccc2)cc1Cl [Example 132, 1-Benzyl-4-chloro-N-((2R,3S)-2,5-dimethyl-4-oxo-2,3,4,5-tetrahydropyrido[3,2-b][1,4]oxazepin-3-yl)-1H-pyrazole-3-carboxamide] | 0.1 to 1000 nM | 0.1 to 1000 nM |
| CN1C(=O)[C@@H](NC(=O)c2nn(Cc3ccccc3F)cc2F)COc2cccnc21 [Example 133, (S)-4-Fluoro-1-(2-fluorobenzyl)-N-(5-methyl-4-oxo-2,3,4,5-tetrahydropyrido[3,2-b][1,4]oxazepin-3-yl)-1H-pyrazole-3-carboxamide] | 0.1 to 1000 nM | 0.1 to 1000 nM |
| CN1C(=O)[C@@H](NC(=O)c2nn(Cc3cccc(F)c3)cc2F)COc2cccnc21 [Example 135, (S)-4-Fluoro-1-(3-fluorobenzyl)-N-(5-methyl-4-oxo-2,3,4,5-tetrahydropyrido[3,2-b][1,4]oxazepin-3-yl)-1H-pyrazole-3-carboxamide] | 0.1 to 1000 nM | 0.1 to 1000 nM |
| C[C@H]1Oc2cccnc2N(C)C(=O)[C@H]1NC(=O)c1ncn(Cc2ccccc2)n1 [Example 136, 1-Benzyl-N-((2R,3S)-2,5-dimethyl-4-oxo-2,3,4,5-tetrahydropyrido[3,2-b][1,4]oxazepin-3-yl)-1H-1,2,4-triazole-3-carboxamide] | 0.1 to 1000 nM | 0.1 to 1000 nM |
| CN1C(=O)[C@@H](NC(=O)c2nn(Cc3cncc(F)c3)cc2F)COc2cccnc21 [Example 137, (S)-4-Fluoro-1-((5-fluoropyridin-3-yl)methyl)-N-(5-methyl-4-oxo-2,3,4,5-tetrahydropyrido[3,2-b][1,4]oxazepin-3-yl)-1H-pyrazole-3-carboxamide] | 0.1 to 1000 nM | 0.1 to 1000 nM |
| C[C@H]1Oc2cccnc2N(C)C(=O)[C@H]1NC(=O)c1nnc(C2(c3ccccc3)CC2)o1 [Example 138, N-((2R,3S)-2,5-dimethyl-4-oxo-2,3,4,5-tetrahydropyrido[3,2-b][1,4]oxazepin-3-yl)-5-(1-phenylcyclopropyl)-1,3,4-oxadiazole-2-carboxamide] | 0.1 to 1000 nM | 0.1 to 1000 nM |
| C[C@H]1Oc2cccnc2N(C)C(=O)[C@H]1NC(=O)c1cc(Oc2ccccc2F)cnn1 [Example 139, N-((2R,3S)-2,5-dimethyl-4-oxo-2,3,4,5-tetrahydropyrido[3,2-b][1,4]oxazepin-3-yl)-5-(2-fluorophenoxy)pyridazine-3-carboxamide] | 0.1 to 1000 nM | 0.1 to 1000 nM |
| C[C@H]1Oc2cccnc2N(C)C(=O)[C@H]1NC(=O)c1cn(Cc2ccccc2)cn1 [Example 140, 1-Benzyl-N-((2R,3S)-2,5-dimethyl-4-oxo-2,3,4,5-tetrahydropyrido[3,2-b][1,4]oxazepin-3-yl)-1H-imidazole-4-carboxamide] | 0.1 to 1000 nM | 0.1 to 1000 nM |
| C[C@H]1Oc2cccnc2N(C)C(=O)[C@H]1NC(=O)c1nn(Cc2ccc(F)cc2)cc1F [Example 143, N-((2R,3S)-2,5-dimethyl-4-oxo-2,3,4,5-tetrahydropyrido[3,2-b][1,4]oxazepin-3-yl)-4-fluoro-1-(4-fluorobenzyl)-1H-pyrazole-3-carboxamide] | 0.1 to 1000 nM | 0.1 to 1000 nM |

Reference: US10604535B2, “Compounds, compositions and methods” (Denali Therapeutics Inc., priority 2016, dated 2020)
